{"source": "ChEMBL document CHEMBL1201862", "about": "“PubChem BioAssay data set” (2004)", "assay_in_all_cases": "NCI anticancer screen, dose series, 48 h", "key": {"HOP-92": {"tested_on": "HOP-92"}, "EKVX": {"tested_on": "EKVX"}, "M14": {"tested_on": "M14"}, "SF-268": {"tested_on": "SF-268"}, "OVCAR-8": {"tested_on": "OVCAR-8"}, "K562": {"tested_on": "K562"}, "SW-620": {"tested_on": "SW-620"}, "HT-29": {"tested_on": "HT-29"}, "OVCAR-4": {"tested_on": "OVCAR-4"}, "NCI/ADR-RES": {"tested_on": "NCI/ADR-RES"}, "UACC-257": {"tested_on": "UACC-257"}, "RPMI-8226": {"tested_on": "RPMI-8226"}, "UACC-62": {"tested_on": "UACC-62"}, "HOP-62": {"tested_on": "HOP-62"}, "SK-OV-3": {"tested_on": "SK-OV-3"}, "A549": {"tested_on": "A549"}, "A498": {"tested_on": "A498"}, "U-251": {"tested_on": "U-251"}, "MDA-MB-435": {"tested_on": "MDA-MB-435"}, "SK-MEL-28": {"tested_on": "SK-MEL-28"}}, "note": "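A five-concentration, 48-hour dose response in 96-well plates underlies each endpoint, interpolated linearly between surrounding concentrations. At the GI50, growth is halved.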 The source made the active and inactive calls. Rule as the data show it: active = GI50 up to about 1.1 µM and inactive = higher.", "data": [{"smiles": "Cc1ccc2nc3ccccc3c(C3C4C(=O)N(c5ccc(F)cc5)C(=O)C4ON3C(C(N)=O)c3ccccc3)c2c1", "note": "(stereo not given)", "values": [{"measurement": "GI50", "setting": "HOP-92", "value": "37.1 µM (inactive)"}, {"measurement": "GI50", "setting": "EKVX", "value": "30.5 µM (inactive)"}, {"measurement": "GI50", "setting": "M14", "value": "57 µM (inactive)"}, {"measurement": "GI50", "setting": "SF-268", "value": "47.1 µM (inactive)"}, {"measurement": "GI50", "setting": "OVCAR-8", "value": "46 µM (inactive)"}, {"measurement": "GI50", "setting": "K562", "value": "50.6 µM (inactive)"}, {"measurement": "GI50", "setting": "SW-620", "value": "37.1 µM (inactive)"}, {"measurement": "GI50", "setting": "HT-29", "value": "26.1 µM (inactive)"}, {"measurement": "GI50", "setting": "OVCAR-4", "value": "41.1 µM (inactive)"}, {"measurement": "GI50", "setting": "NCI/ADR-RES", "value": "29.2 µM (inactive)"}, {"measurement": "GI50", "setting": "UACC-257", "value": "42.7 µM (inactive)"}, {"measurement": "GI50", "setting": "RPMI-8226", "value": "25.3 µM (inactive)"}, {"measurement": "GI50", "setting": "UACC-62", "value": "20.6 µM (inactive)"}, {"measurement": "GI50", "setting": "HOP-62", "value": "71.8 µM (inactive)"}, {"measurement": "GI50", "setting": "SK-OV-3", "value": "33.2 µM (inactive)"}, {"measurement": "GI50", "setting": "A549", "value": "29.4 µM (inactive)"}, {"measurement": "GI50", "setting": "A498", "value": "41.1 µM (inactive)"}, {"measurement": "GI50", "setting": "U-251", "value": "29.4 µM (inactive)"}, {"measurement": "GI50", "setting": "MDA-MB-435", "value": "26.2 µM (inactive)"}, {"measurement": "GI50", "setting": "SK-MEL-28", "value": "59 µM (inactive)"}]}, {"smiles": "O=S(=O)(O)c1ccc(O)c(/N=N/c2c(O)ccc3ccccc23)c1", "values": [{"measurement": "GI50", "setting": "HOP-92", "value": "> 100 µM (inactive)"}, {"measurement": "GI50", "setting": "EKVX", "value": "> 100 µM (inactive)"}, {"measurement": "GI50", "setting": "M14", "value": "> 100 µM (inactive)"}, {"measurement": "GI50", "setting": "SF-268", "value": "> 100 µM (inactive)"}, {"measurement": "GI50", "setting": "OVCAR-8", "value": "> 100 µM (inactive)"}, {"measurement": "GI50", "setting": "K562", "value": "> 100 µM (inactive)"}, {"measurement": "GI50", "setting": "SW-620", "value": "> 100 µM (inactive)"}, {"measurement": "GI50", "setting": "HT-29", "value": "> 100 µM (inactive)"}, {"measurement": "GI50", "setting": "OVCAR-4", "value": "> 100 µM (inactive)"}, {"measurement": "GI50", "setting": "NCI/ADR-RES", "value": "> 100 µM (inactive)"}, {"measurement": "GI50", "setting": "UACC-257", "value": "> 100 µM (inactive)"}, {"measurement": "GI50", "setting": "RPMI-8226", "value": "> 100 µM (inactive)"}, {"measurement": "GI50", "setting": "UACC-62", "value": "> 100 µM (inactive)"}, {"measurement": "GI50", "setting": "HOP-62", "value": "> 100 µM (inactive)"}, {"measurement": "GI50", "setting": "SK-OV-3", "value": "> 100 µM (inactive)"}, {"measurement": "GI50", "setting": "A549", "value": "> 100 µM (inactive)"}, {"measurement": "GI50", "setting": "A498", "value": "> 100 µM (inactive)"}, {"measurement": "GI50", "setting": "U-251", "value": "73.6 µM (inactive)"}, {"measurement": "GI50", "setting": "MDA-MB-435", "value": "> 100 µM (inactive)"}, {"measurement": "GI50", "setting": "SK-MEL-28", "value": "> 100 µM (inactive)"}]}, {"smiles": "COc1cc(C2c3cc4c(cc3OC(NNC(N)=O)C2C)OCO4)cc(OC)c1OC", "note": "(stereo not given)", "values": [{"measurement": "GI50", "setting": "HOP-92", "value": "0.0675 µM (active)"}, {"measurement": "GI50", "setting": "EKVX", "value": "2.35 µM (inactive)"}, {"measurement": "GI50", "setting": "M14", "value": "0.115 µM (active)"}, {"measurement": "GI50", "setting": "SF-268", "value": "0.518 µM (active)"}, {"measurement": "GI50", "setting": "OVCAR-8", "value": "0.356 µM (active)"}, {"measurement": "GI50", "setting": "K562", "value": "0.0817 µM (active)"}, {"measurement": "GI50", "setting": "SW-620", "value": "0.142 µM (active)"}, {"measurement": "GI50", "setting": "HT-29", "value": "0.145 µM (active)"}, {"measurement": "GI50", "setting": "OVCAR-4", "value": "11.8 µM (inactive)"}, {"measurement": "GI50", "setting": "NCI/ADR-RES", "value": "4.72 µM (inactive)"}, {"measurement": "GI50", "setting": "UACC-257", "value": "0.603 µM (active)"}, {"measurement": "GI50", "setting": "RPMI-8226", "value": "0.167 µM (active)"}, {"measurement": "GI50", "setting": "UACC-62", "value": "0.179 µM (active)"}, {"measurement": "GI50", "setting": "HOP-62", "value": "0.118 µM (active)"}, {"measurement": "GI50", "setting": "SK-OV-3", "value": "1.36 µM (inactive)"}, {"measurement": "GI50", "setting": "A549", "value": "0.276 µM (active)"}, {"measurement": "GI50", "setting": "A498", "value": "0.0233 µM (active)"}, {"measurement": "GI50", "setting": "U-251", "value": "0.126 µM (active)"}, {"measurement": "GI50", "setting": "MDA-MB-435", "value": "0.0586 µM (active)"}, {"measurement": "GI50", "setting": "SK-MEL-28", "value": "1.12 µM (inactive)"}]}, {"smiles": "O=c1[nH]nc(-c2ccccc2)n1O", "values": [{"measurement": "GI50", "setting": "HOP-92", "value": "> 100 µM (inactive)"}, {"measurement": "GI50", "setting": "EKVX", "value": "> 100 µM (inactive)"}, {"measurement": "GI50", "setting": "M14", "value": "> 100 µM (inactive)"}, {"measurement": "GI50", "setting": "SF-268", "value": "91.4 µM (inactive)"}, {"measurement": "GI50", "setting": "OVCAR-8", "value": "> 100 µM (inactive)"}, {"measurement": "GI50", "setting": "K562", "value": "> 100 µM (inactive)"}, {"measurement": "GI50", "setting": "SW-620", "value": "> 100 µM (inactive)"}, {"measurement": "GI50", "setting": "HT-29", "value": "> 100 µM (inactive)"}, {"measurement": "GI50", "setting": "OVCAR-4", "value": "> 100 µM (inactive)"}, {"measurement": "GI50", "setting": "NCI/ADR-RES", "value": "> 100 µM (inactive)"}, {"measurement": "GI50", "setting": "UACC-257", "value": "> 100 µM (inactive)"}, {"measurement": "GI50", "setting": "RPMI-8226", "value": "> 100 µM (inactive)"}, {"measurement": "GI50", "setting": "UACC-62", "value": "> 100 µM (inactive)"}, {"measurement": "GI50", "setting": "HOP-62", "value": "> 100 µM (inactive)"}, {"measurement": "GI50", "setting": "SK-OV-3", "value": "> 100 µM (inactive)"}, {"measurement": "GI50", "setting": "A549", "value": "> 100 µM (inactive)"}, {"measurement": "GI50", "setting": "A498", "value": "> 100 µM (inactive)"}, {"measurement": "GI50", "setting": "U-251", "value": "> 100 µM (inactive)"}, {"measurement": "GI50", "setting": "MDA-MB-435", "value": "> 100 µM (inactive)"}, {"measurement": "GI50", "setting": "SK-MEL-28", "value": "> 100 µM (inactive)"}]}, {"smiles": "COC1C(OC(=O)/C=C/C=C/C=C/C=C\\C(=O)O)CCC2(CO2)C1C1(C)OC1CC=C(C)C", "note": "(stereo not given)", "values": [{"measurement": "GI50", "setting": "HOP-92", "value": "> 100 µM (inactive)"}, {"measurement": "GI50", "setting": "EKVX", "value": "> 100 µM (inactive)"}, {"measurement": "GI50", "setting": "M14", "value": "> 100 µM (inactive)"}, {"measurement": "GI50", "setting": "SF-268", "value": "> 100 µM (inactive)"}, {"measurement": "GI50", "setting": "OVCAR-8", "value": "> 100 µM (inactive)"}, {"measurement": "GI50", "setting": "K562", "value": "> 56.5 µM (inactive)"}, {"measurement": "GI50", "setting": "SW-620", "value": "> 100 µM (inactive)"}, {"measurement": "GI50", "setting": "HT-29", "value": "> 100 µM (inactive)"}, {"measurement": "GI50", "setting": "OVCAR-4", "value": "> 100 µM (inactive)"}, {"measurement": "GI50", "setting": "NCI/ADR-RES", "value": "> 100 µM (inactive)"}, {"measurement": "GI50", "setting": "UACC-257", "value": "> 100 µM (inactive)"}, {"measurement": "GI50", "setting": "RPMI-8226", "value": "> 100 µM (inactive)"}, {"measurement": "GI50", "setting": "UACC-62", "value": "> 100 µM (inactive)"}, {"measurement": "GI50", "setting": "HOP-62", "value": "> 100 µM (inactive)"}, {"measurement": "GI50", "setting": "SK-OV-3", "value": "> 89.7 µM (inactive)"}, {"measurement": "GI50", "setting": "A549", "value": "> 100 µM (inactive)"}, {"measurement": "GI50", "setting": "A498", "value": "> 100 µM (inactive)"}, {"measurement": "GI50", "setting": "U-251", "value": "> 100 µM (inactive)"}, {"measurement": "GI50", "setting": "MDA-MB-435", "value": "> 100 µM (inactive)"}, {"measurement": "GI50", "setting": "SK-MEL-28", "value": "> 100 µM (inactive)"}]}]}
